5 compounds from ChEMBL document CHEMBL1129964 (J Med Chem, 1997) can be followed below.

For experiment [1], the target named is Prothrombin (Homo sapiens, UniProt P00734). Description: Binding affinity towards thrombin.
Experiment [2] addresses Plasminogen (Homo sapiens, UniProt P00747). Description: Binding affinity towards Plasmin.
Experiment [3] has as its target Tissue-type plasminogen activator (Homo sapiens, UniProt P00750). Briefly: Binding affinity against tissue-type plasminogen activator receptor.
Experiment [4] deals with Serine protease 1 (Homo sapiens, UniProt P07477). Description: Binding affinity towards trypsin.
Sequence of Serine protease 1 (P07477 whole entry): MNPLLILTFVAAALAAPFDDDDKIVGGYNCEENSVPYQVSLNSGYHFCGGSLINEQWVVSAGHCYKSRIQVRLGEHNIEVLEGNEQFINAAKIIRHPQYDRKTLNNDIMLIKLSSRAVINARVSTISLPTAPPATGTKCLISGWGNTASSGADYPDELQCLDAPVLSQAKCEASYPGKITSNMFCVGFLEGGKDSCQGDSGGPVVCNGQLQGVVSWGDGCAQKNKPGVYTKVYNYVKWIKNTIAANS

Sequence of Tissue-type plasminogen activator (P00750 whole entry): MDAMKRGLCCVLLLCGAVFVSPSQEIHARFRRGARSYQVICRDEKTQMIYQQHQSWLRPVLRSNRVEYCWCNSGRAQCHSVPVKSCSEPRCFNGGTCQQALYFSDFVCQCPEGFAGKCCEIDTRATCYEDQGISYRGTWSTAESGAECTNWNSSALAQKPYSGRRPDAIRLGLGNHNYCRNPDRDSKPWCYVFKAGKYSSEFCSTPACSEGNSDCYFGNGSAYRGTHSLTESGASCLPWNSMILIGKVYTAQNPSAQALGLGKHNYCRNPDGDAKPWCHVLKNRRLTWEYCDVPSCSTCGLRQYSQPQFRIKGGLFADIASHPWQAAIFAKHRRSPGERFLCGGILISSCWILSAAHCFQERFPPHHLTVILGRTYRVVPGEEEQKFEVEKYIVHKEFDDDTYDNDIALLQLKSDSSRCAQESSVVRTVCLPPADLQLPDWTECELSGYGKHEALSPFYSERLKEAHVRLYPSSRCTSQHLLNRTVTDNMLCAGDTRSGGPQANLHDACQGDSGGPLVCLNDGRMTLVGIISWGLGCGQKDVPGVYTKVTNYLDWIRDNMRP
Sequence of Plasminogen (P00747 97-580 limits assumed): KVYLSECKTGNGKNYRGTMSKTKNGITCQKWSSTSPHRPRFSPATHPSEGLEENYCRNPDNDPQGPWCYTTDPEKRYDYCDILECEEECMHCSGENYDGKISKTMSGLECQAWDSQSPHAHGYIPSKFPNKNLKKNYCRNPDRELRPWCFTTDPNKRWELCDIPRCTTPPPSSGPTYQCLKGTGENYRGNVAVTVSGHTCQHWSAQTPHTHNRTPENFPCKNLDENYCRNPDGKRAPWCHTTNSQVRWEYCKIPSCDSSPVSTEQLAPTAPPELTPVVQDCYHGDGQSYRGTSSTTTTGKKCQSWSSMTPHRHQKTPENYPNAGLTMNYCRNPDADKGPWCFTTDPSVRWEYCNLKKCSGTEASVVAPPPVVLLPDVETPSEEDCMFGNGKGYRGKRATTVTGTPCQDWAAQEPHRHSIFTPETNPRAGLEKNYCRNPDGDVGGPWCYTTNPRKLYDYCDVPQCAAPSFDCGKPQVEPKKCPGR
Sequence of Plasminogen (P00747 581-810 limits assumed): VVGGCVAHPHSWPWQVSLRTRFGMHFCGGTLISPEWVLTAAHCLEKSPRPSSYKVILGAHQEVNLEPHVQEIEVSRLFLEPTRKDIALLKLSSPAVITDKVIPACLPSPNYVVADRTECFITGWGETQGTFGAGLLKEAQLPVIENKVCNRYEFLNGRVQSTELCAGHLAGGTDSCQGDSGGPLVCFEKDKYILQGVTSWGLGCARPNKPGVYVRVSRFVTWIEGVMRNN

The term Ki denotes the dissociation constant of the complex between target and ligand, obtained from inhibition or displacement. A high value points to weaker binding. Take `CN[C@H](Cc1ccccc1)C(=O)N1CCC[C@H]1C(=O)NC[C@H]1CC[C@H](N)CC1`: affinity in experiment [1] was put at a Ki of 5 nM.
For the compound `CNC(=O)C(=O)[C@@H](NC(=O)[C@@H]1CCCN1C(=O)[C@@H](Cc1ccccc1)NC)[C@H]1CC[C@H](N)CC1`, in experiment [1], the Ki was 0.09 nM.
In turn, `NC1CCC(CNC(=O)[C@@H]2CCCN2C(=O)[C@@H](Cc2ccccc2)NS(=O)(=O)Cc2ccccc2)CC1` (stereo partly drawn) showed a Ki in experiment [1] of 0.4 nM.
For `NC1CCC(CNC(=O)[C@@H]2CCCN2C(=O)[C@H](N)C(c2ccccc2)c2ccccc2)CC1` (stereo partly drawn), the Ki in experiment [1] was 0.1 nM.
On to `NC1CCC(CNC(=O)[C@@H]2CCCN2C(=O)C(NS(=O)(=O)Cc2ccccc2)C(c2ccccc2)c2ccccc2)CC1` (stereo partly drawn), for which the inhibition constant Ki in experiment [2] turned out to be 0.49 µM; in experiment [1] it was 0.0025 nM; in experiment [3], 6700 µM; in experiment [4], 0.004 µM.
